pIC50: −log10 of the molar value. Numbered stars: 1 amine (or outer) side, 2 acyl side, 3 side chain; on linkers, the order of the positions; unused ones are H or OH. Bridge positions count the residues as written; N and C are the ends. Square brackets hold non-standard residues; d marks the D form. Peptide text beside a SMILES is read from it. X3 = O=C(/C=N/OCCCCCCOc1cc(C[*:2])cc(C[*:3])c1)[*:1]; X5 = O=C(CCCCCCOc1cc(C[*:2])cc(C[*:3])c1)[*:1]; tBuAla = CC(C)(C)C[C@H](N)C(=O)O; hSer = N[C@@H](CCO)C(=O)O; Nle = CCCC[C@H](N)C(=O)O

This assay has as its target T1, rh-integrin α4β7/LPAM-1 (Homo sapiens, UniProt P13612+P26010).
T1 sequence (P13612 34-977 limits assumed): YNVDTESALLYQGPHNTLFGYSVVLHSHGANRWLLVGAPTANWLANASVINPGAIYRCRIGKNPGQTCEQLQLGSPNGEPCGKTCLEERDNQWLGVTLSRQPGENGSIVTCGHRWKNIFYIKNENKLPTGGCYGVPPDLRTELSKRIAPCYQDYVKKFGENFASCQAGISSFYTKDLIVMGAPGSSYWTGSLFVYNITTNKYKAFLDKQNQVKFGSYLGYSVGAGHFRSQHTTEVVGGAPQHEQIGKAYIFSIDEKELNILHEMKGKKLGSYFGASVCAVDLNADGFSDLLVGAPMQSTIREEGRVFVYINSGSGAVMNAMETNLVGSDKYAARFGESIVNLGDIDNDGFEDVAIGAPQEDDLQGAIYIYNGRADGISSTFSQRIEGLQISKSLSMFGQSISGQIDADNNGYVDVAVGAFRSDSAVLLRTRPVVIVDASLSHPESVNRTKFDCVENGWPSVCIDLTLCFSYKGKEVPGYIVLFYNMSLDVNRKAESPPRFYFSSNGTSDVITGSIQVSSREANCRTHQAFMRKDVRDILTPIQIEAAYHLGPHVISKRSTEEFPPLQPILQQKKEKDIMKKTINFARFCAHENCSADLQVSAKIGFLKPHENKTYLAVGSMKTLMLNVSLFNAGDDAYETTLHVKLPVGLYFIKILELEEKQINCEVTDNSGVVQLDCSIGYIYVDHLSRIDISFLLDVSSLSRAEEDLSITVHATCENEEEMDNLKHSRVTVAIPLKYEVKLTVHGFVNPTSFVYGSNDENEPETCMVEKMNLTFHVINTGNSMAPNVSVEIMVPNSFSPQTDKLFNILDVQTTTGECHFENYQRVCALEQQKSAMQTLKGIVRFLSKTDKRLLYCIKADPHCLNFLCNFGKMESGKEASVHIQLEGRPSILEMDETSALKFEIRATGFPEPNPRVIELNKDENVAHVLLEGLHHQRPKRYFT
T1 sequence (P26010 20-723 limits assumed): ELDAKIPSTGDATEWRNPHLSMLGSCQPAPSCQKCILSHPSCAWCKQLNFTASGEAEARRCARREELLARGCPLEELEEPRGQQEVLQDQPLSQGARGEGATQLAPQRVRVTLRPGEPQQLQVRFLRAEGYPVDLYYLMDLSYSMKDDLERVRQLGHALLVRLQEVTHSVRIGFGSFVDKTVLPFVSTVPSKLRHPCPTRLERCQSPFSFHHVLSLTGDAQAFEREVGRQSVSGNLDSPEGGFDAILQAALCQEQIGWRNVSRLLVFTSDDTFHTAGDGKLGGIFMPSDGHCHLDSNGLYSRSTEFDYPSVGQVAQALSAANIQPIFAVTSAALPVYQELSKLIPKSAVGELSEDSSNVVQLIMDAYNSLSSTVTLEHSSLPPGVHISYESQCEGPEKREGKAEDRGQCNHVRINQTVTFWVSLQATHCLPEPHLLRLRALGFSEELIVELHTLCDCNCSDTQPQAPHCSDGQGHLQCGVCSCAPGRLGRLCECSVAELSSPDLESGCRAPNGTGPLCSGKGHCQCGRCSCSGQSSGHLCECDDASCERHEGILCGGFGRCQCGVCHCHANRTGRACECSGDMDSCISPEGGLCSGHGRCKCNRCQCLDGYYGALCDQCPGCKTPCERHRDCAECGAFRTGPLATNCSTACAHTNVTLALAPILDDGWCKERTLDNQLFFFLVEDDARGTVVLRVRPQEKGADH
Kind of assay: α4β7-MadCAM Competition ELISA (Example 4). The class given is binding. The note with it: Table 3 Representative compounds; inhibition of MAdCAM binding to coated α4β7; read-out: IC50. How it is done: After washing with wash buffer, 200 μL assay buffer was added to each well and incubated for one hour at 28° C. After another wash with wash buffer, 100 μL of a MAdCAM and peptide mixture in assay buffer was added to each well and incubated for one hour at 28° C., followed by washing with wash buffer.
Regarding `CCCC[C@@H]1NC(=O)[C@H](CO)NC(=O)[C@H](CCCNC(=N)N)NC(=O)[C@@H]2CSCC(=O)N[C@@H](CCCNC(=N)N)C(=O)N[C@@H](CSSC[C@@H](C(=O)N[C@@H](Cc3c[nH]c4ccccc34)C(=O)N[C@@H](CCC(N)=O)C(N)=O)NC(=O)[C@H](CC(C)C)NC(=O)[C@@H](CC(=O)O)NC1=O)C(=O)N[C@@H](CO)C(=O)N[C@@H](CC(=O)O)C(=O)N[C@@H]([C@@H](C)O)C(=O)N[C@@H](CC(C)C)C(=O)N2` [compound 68] ({CH2CO}-RCSDTLCRS[Nle][dD]LCWQ-NH2; disulfide 2-13; thioether N-7), the pIC50 is 4.80.
`CCCC[C@@H]1NC(=O)[C@H](CO)NC(=O)[C@@H]2CSSC[C@@H](C(=O)N[C@@H](Cc3c[nH]c4ccccc34)C(=O)N[C@@H](CCC(N)=O)C(N)=O)NC(=O)[C@H](C(C)C)NC(=O)[C@@H](CC(=O)O)NC(=O)[C@H](CC(C)C)NC(=O)[C@H](CO)NC(=O)[C@H](CCCNC(=N)N)NC(=O)[C@H](CSCC(=O)N[C@@H](CCCNC(=N)N)C(=O)N2)NC(=O)[C@H]([C@@H](C)CC)NC(=O)[C@H](CC(=O)O)NC1=O` [compound 70, Disulfide- RCS{Nle}DICRS LDVCWQ] ({CH2CO}-RCS[Nle]DICRSL[dD]VCWQ-NH2; disulfide 2-13; thioether N-7): the pIC50 is 4.71.
Then `C[C@@H](O)[C@@H]1NC(=O)[C@H](CC(=O)O)NC(=O)[C@@H]2CCCN2C(=O)[C@H](Cc2ccc(O)cc2)NC(=O)[C@@H]2CSCc3cc(cc(c3)OCCCCCCO/N=C/C(=O)N[C@@H](CCC(=O)O)C(=O)N2)CSC[C@@H](C(N)=O)NC(=O)[C@H](Cc2cnc[nH]2)NC(=O)[C@H](Cc2ccc(O)cc2)NC1=O` [compound 71, TSL6- SECYPDTYHC] (ECYPDTYHC-NH2; linker N-2-9 via X3), with 4.70.
Then `CC[C@H](C)[C@@H]1NC(=O)[C@H](Cc2ccc(O)cc2)NC(=O)[C@H](CC(C)C)NC(=O)[C@@H]2CCCN2C(=O)[C@@H]2CSCc3cc(cc(c3)OCCCCCCO/N=C/C(=O)N[C@@H](CCSC)C(=O)N2)CSC[C@@H](C(N)=O)NC(=O)[C@H](Cc2cnc[nH]2)NC(=O)[C@H](C(C)C)NC1=O` [compound 72, TSL6- SMCPLYIVHC] (MCPLYIVHC-NH2; linker N-2-9 via X3), with 4.53; and `CC(C)C[C@@H]1NC(=O)/C=N/OCCCCCCOc2cc3cc(c2)CSC[C@H](NC1=O)C(=O)N[C@@H](Cc1ccc(O)cc1)C(=O)N1CCC[C@H]1C(=O)N[C@@H](CC(=O)O)C(=O)N[C@@H]([C@@H](C)O)C(=O)N[C@@H](Cc1ccc(O)cc1)C(=O)N[C@@H](Cc1cnc[nH]1)C(=O)N[C@H](C(N)=O)CSC3` [compound 73, TSL6- SLCYPDTYHC] (LCYPDTYHC-NH2; linker N-2-9 via X3), with 4.51; and `CC(C)C[C@H]1NC(=O)[C@@H]2CCCN2C(=O)[C@@H]2CSCc3cc(cc(c3)OCCCCCCO/N=C/C(=O)N[C@@H](C)C(=O)N2)CSC[C@@H](C(N)=O)NC(=O)[C@H](CO)NC(=O)[C@@H]2CCCN2C(=O)[C@H](C(C)C)NC(=O)[C@H](CC(=O)O)NC1=O` [compound 74, TSL6- SACPLDVPSC] (ACP[dL]DVPSC-NH2; linker N-2-9 via X3), with 4.51.
Consider `CSCC[C@@H]1NC(=O)[C@@H]2CCCN2C(=O)[C@@H]2CSCc3cc(cc(c3)OCCCCCCO/N=C/C(=O)N[C@@H](C)C(=O)N2)CSC[C@@H](C(N)=O)NC(=O)[C@H](CCC(=O)O)NC(=O)CNC(=O)[C@H](Cc2c[nH]c3ccccc23)NC(=O)[C@H](C(C)C)NC(=O)[C@H](CC(=O)O)NC1=O` [compound 75, TSL6- SACPMDVWGEC] (ACPMDVWGEC-NH2; linker N-2-10 via X3), for which the pIC50 is 4.50.
`CCCC[C@@H]1NC(=O)[C@H](CO)NC(=O)[C@@H]2CSSC[C@@H](C(=O)N[C@@H](Cc3c[nH]c4ccccc34)C(=O)N[C@@H](CCC(N)=O)C(N)=O)NC(=O)[C@H](CC(C)C)NC(=O)[C@@H]([C@H](C)O)NC(=O)[C@H](CC(=O)O)NC(=O)[C@H](CO)NC(=O)[C@H](CCCNC(=N)N)NC(=O)[C@H](CSCC(=O)N[C@@H](CCCNC(=N)N)C(=O)N2)NC(=O)[C@H](CC(C)C)NC(=O)[C@H](CC(=O)O)NC1=O` [compound 76, Disulfide- RCS{Nle}DICRS DTLCWQ] ({CH2CO}-RCS[Nle]DLCRSD[dT]LCWQ-NH2; disulfide 2-13; thioether N-7): the pIC50 is 4.46.
For `CC(C)[C@@H]1NC(=O)[C@H](CCCCN)NC(=O)[C@@H]2CCCN2C(=O)[C@@H]2CCCN2C(=O)[C@H](CC(=O)O)NC(=O)[C@H](Cc2cnc[nH]2)NC(=O)[C@@H]2CSCc3cc(cc(c3)OCCCCCCO/N=C/C(=O)N[C@@H](CO)C(=O)N2)CSC[C@@H](C(N)=O)NC1=O` [compound 77, TSL6- SKCPADVPSC] (SCHDPPKVC-NH2; linker N-2-9 via X3) the value was 4.39; for `CC[C@H](C)[C@@H]1NC(=O)[C@H](CC(=O)O)NC(=O)[C@H](C)NC(=O)[C@@H]2CCCN2C(=O)[C@@H]2CSCc3cc(cc(c3)OCCCCCCO/N=C/C(=O)N[C@@H](CCC(N)=O)C(=O)N2)CSC[C@@H](C(N)=O)NC(=O)[C@H]([C@@H](C)O)NC(=O)[C@@H]2CCCN2C1=O` [compound 78, TSL6- SQCPADIPTC] (QCPADIPTC-NH2; linker N-2-9 via X3), 4.36.
Consider `C[C@@H](O)[C@@H]1NC(=O)[C@H](CC(=O)O)NC(=O)[C@@H]2CCCN2C(=O)[C@H](Cc2ccc(O)cc2)NC(=O)[C@@H]2CSCc3cc(cc(c3)OCCCCCCO/N=C/C(=O)N[C@@H](CC(=O)O)C(=O)N2)CSC[C@@H](C(N)=O)NC(=O)[C@H](Cc2cnc[nH]2)NC(=O)[C@H](Cc2ccccc2)NC1=O` [compound 79, TSL6- SDCYPDTFHC] (DCYPDTFHC-NH2; linker N-2-9 via X3), for which the pIC50 is 4.27.
For `COCC[C@@H]1NC(=O)[C@@H]2CCCN2C(=O)[C@@H]2CSCc3cc(cc(c3)OCCCCCCC(=O)NCC(=O)N[C@@H](CCCNC(=N)N)C(=O)N2)CSC[C@@H](C(N)=O)NC(=O)[C@H](CCC(=O)O)NC(=O)[C@H](CCC(N)=O)NC(=O)[C@@H]2CCCN2C(=O)[C@H](CC(C)(C)C)NC(=O)[C@H](CC(=O)O)NC1=O` [compound 80, TSLC7-GQCP{Hse(OMe)} D{tBuAla}PQEC] (GRCP[hSer](Me)D[tBuAla]PQEC-NH2; linker N-3-11 via X5) the value was 4.25; for `CC(C)C[C@@H]1NC(=O)[C@@H]2CCCN2C(=O)[C@@H]2CSCc3cc(cc(c3)OCCCCCCO/N=C/C(=O)N[C@@H](CCCCN)C(=O)N2)CSC[C@@H](C(N)=O)NC(=O)[C@H](CO)NC(=O)[C@@H]2CCCN2C(=O)[C@H](C(C)C)NC(=O)[C@H](C)NC1=O` [compound 81, TSL6- SKCPLAVPSC] (KCPLAVPSC-NH2; linker N-2-9 via X3), 4.25; for `CSCC[C@@H]1NC(=O)[C@@H]2CSCc3cc(cc(c3)OCCCCCCO/N=C/C(=O)NCC(=O)N2)CSC[C@@H](C(N)=O)NC(=O)[C@H](Cc2ccccc2)NC(=O)[C@H](C)NC(=O)[C@H](Cc2ccccc2)NC(=O)[C@H](CC(=O)O)NC(=O)[C@H](CC(=O)O)NC1=O` [compound 82, TSL6- SGCMDDFAFC] (GCMDDFAFC-NH2; linker N-2-9 via X3), 4.23.
Then `CC[C@H](C)[C@@H]1NC(=O)[C@H](CCCNC(=N)N)NC(=O)CNC(=O)[C@H](Cc2ccc(O)cc2)NC(=O)[C@H](Cc2c[nH]c3ccccc23)NC(=O)[C@H](Cc2c[nH]cn2)NC(=O)[C@@H]2CSCc3cc(cc(c3)OCCCCCCO/N=C/C(=O)N[C@@H](CC(N)=O)C(=O)N2)CSC[C@@H](C(N)=O)NC1=O` [compound 83, TSL6- SNCHWYGRIC] (NCHWYGRIC-NH2; linker N-2-9 via X3), with 4.19.

The values above are taken from patent publication US20230145835A1, “Modulators of Alpha-4-beta-7 Integrin and MAdCAM” (48HD Biopharma Inc., priority 2021, published 2023).
